According to patent publication US8492417B2, “Topical use of thiazolidine derivatives against consequences of oxidative stress of skin” (Exsymol S.A.M., priority 2007, dated 2013):
Like-named read-outs stand apart in the source and are kept apart here. Blank lines part the entries; values can stand above or below the molecule they belong to.

Experiments:
V79 fibroblastic line [1] = test: Anti-clastogen effect: micronucleus cells under genotoxic 4-HNE stress; format: cell-based, hamster; details: stress-HNE 1 ppm
Source text: The study has been carried out according to identical experimental conditions (sowing) to those presented in the here-above test 3, with cell exposure to a state of “4-HNE stress ” at […] genotoxic concentration, as described (Eckel P. M., Molecular Aspects of Medicine (2003), vol. 24, pp. 161-165) as generating cellular DNA breaks and micronucleus formation (clastogen effect).
The micronucleus cell number is counted following reading of the slides with epifluorescence microscope, on 2000 cells and after marking with orange acridine (DNA colorant).
Results, taking the middle values obtained from two independent experiments, are presented below in table 4, in comparison with those for N-acetyl-cysteine at 2 mM chosen as a positive reference molecule (number of micronucleus cells close to the non-exposed control).

V79 fibroblastic line [2] = test: Neutralization of 4-hydroxynonenal cytotoxicity, MTT cellular viability; format: cell-based, hamster; details: 4-HNE 6 ppm
Protocol: The experimental study has been carried out on a fibroblastic line of hamster called V79, maintained in humid atmosphere at 37° C. and 5% CO2, then seeded in 96 wells plates at the rate of 0.5.10^4 cells per well.
The cellular viability of fibroblasts is measured by the incorporation method to the bromide of 3-(4,5-dimethylthiazol-2-yl)-2,5-diphenyltetrazolium (or MTT). The results, taking the middle values obtained from three independent experiments, are presented below in table 3, in comparison with those for the N-acetyl-cysteine at 2 mM chosen as a positive reference molecule (total restoration of cellular viability in relation to a control and the non stressed cells with 4-HNE).

V79 cells = test: Protection against "UVA-induced" stress: intracellular ROS by CMDCF probe; format: cell-based, hamster; details: irradiated cells, UVA 5 J. cm−2
Protocol: The study has been carried out according to identical experimental conditions (sowing) to those presented in the here-above tests 3 and 4, but with an exposure of V79 cells to ultraviolet radiation (λ315-400 nm) with the moderate dose of 5 J. cm^−2 (“UVA-induced” stress).
The formation of intracellular ROS is measured with the permeant fluorescent probe “CMDCF” derived from fluorescein (10 μm, 15 minutes incubation).
The percentages of CMDCF cells said “positive” (cells with intracellular formation of ROS are presented below in table 6, in comparison with unirradiated cells, then with cells treated with N-acetyl-cysteine (reference molecule) and different concentrations of 2-oxo-1,3-thiazolidine compound.

[3] = literature value (Cabelli 1983); cited from earlier work
[4] = "in tubo" taurine formation in contact with H2O2 solution (HPLC); format: physicochemical; details: 4 equivalents H2O2, pH 7.4, 37° C.
[5] = "Global" antioxidant power: desoxyribose protection with oxidase/hypoxanthine xanthine pair; details: pH 7.5
Protocol: The production system of ROS, described by Nowak D. and coll. […] This is characterized by the sum of the effects against the superoxide anion O2^o−, hydrogen peroxide H2O2, and the hydroxyl radical OH^o, and is expressed by following the percentage of protection of a “detecting” molecule, desoxyribose.
Experimentally, the tested substance is dissolved in a buffered medium at pH 7.5, supplemented with NaCl, MgCl2 et CaCl2. After their incubation at 37° C. in the presence of the oxidase/hypoxanthine xanthine pair, EDTA and desoxyribose, the reaction is stopped with the help of trichloroacetic acid. After addition of thiobarbituric acid, an optic density measure at 532 nm is carried out, expressed later as percentage of desoxyribose protection (following comparison with a control).

[6] = Scavenging speed constant of the hydroxyl radical, Ks (OH°); parameters: unit not given here; details: pH 7,4, 37° C., one hour incubation; middle values of five experiments
Protocol: The method, described by Rehman A. and coll.
Experimentally, the tested substance is dissolved in a buffered medium of pH 7,4 to which is added a generating medium of OH^o. Following one hour of incubation at 37° C., the reaction is stopped with the help of trichloroacetic acid. […]

SMILES: CC(=O)N[C@@H](CS)C(=O)O [N-acetyl-cysteine, reference compound]
Cell number with micronucleus/2000 cells (V79 fibroblastic line [1]; compound 2 mM): 27 | viability at 2000 µM (V79 fibroblastic line [2]; compound 2 mM): 126% | % of CMDCF positive cells (V79 cells; compound 5 mM): 4%

SMILES: O=C1O[C@H]([C@@H](O)CO)C(O)=C1O [ascorbic acid]
Ks (OH°) [3]: 10.1 Gigas.M-1.s-1

taurine (% formation) ([4]; 3 h): 30% | taurine (% formation) ([4]; 7 h): 50% | taurine (% formation) ([4]; 24 h): 77% | taurine (% formation) ([4]; 48 h): 89%
SMILES: S=C1NCCS1 [2-thiono-1,3-thiazolidine]

logP (physchem): -0.27 | taurine (% formation) ([4]; 3 h): 38% | taurine (% formation) ([4]; 7 h): 56% | taurine (% formation) ([4]; 24 h): 82% | taurine (% formation) ([4]; 48 h): 93%
SMILES: O=C1NCCS1 [2-oxo-1,3-thiazolidine]
% protection ([5]; compound 10 mM): 19% | % protection ([5]; compound 20 mM): 25% | Cell number with micronucleus/2000 cells (V79 fibroblastic line [1]; compound 5 mM): 21 | viability at 100 µM (V79 fibroblastic line [2]; compound 0.1 mM): 40% | viability at 1000 µM (V79 fibroblastic line [2]; compound 1 mM): 58% | viability at 2500 µM (V79 fibroblastic line [2]; compound 2.5 mM): 100% | Ks (OH°) [6]: 13.52 | % of CMDCF positive cells (V79 cells; compound 0.625 mM): 24.7% | % of CMDCF positive cells (V79 cells; compound 1.25 mM): 15.3% | % of CMDCF positive cells (V79 cells; compound 2.5 mM): 12% | % of CMDCF positive cells (V79 cells; compound 5 mM): 7.3%
